Experimental data from patent US9980943B2, “Methods of treating muscular dystrophy” (BOARD OF REGENTS OF THE NEVADA SYSTEM OF HIGHER EDUCATION, …, priority 2013, dated 2018).

Columns and labels:
Type in all cases: cell-based, mouse
[1] = system: β-galactosidase in CMV-LacZ C2C12 myoblasts; experiment: CMV-LacZ secondary screen in C2C12 myoblasts (β-Gal stabilizing assay); details: for CMV-LACZ in Myoblasts (β-galactosidase activity relative to DMSO): CMV-LacZ C2C12 myoblasts; for CMV-LACZ in Myoblasts, value relative to DMSO: SU9516 analogs, C2C12 CMV-LacZ, N=2
Procedure, shortened: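 A secondary screen identifies compounds that stabilize β-gal independently of the native promoter, using CMV-LacZ C2C12 cells. Curves span 0.5–40 μM at six levels, in duplicate.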

[2] = system: α7 integrin (LacZ reporter in α7βgal+/− myoblasts); experiment: Myoblast α7+/LacZ integrin FDG assay (Burkin assay in myoblasts, 96-well); details: 96-well; for Burkin Assay in Myoblasts, signal relative to DMSO: α7+/LacZ myoblasts; for Burkin Assay in Myoblasts, value relative to DMSO: SU9516 analogs, N=3-6
[3] = system: α7 integrin (LacZ reporter in α7+/LacZ myotubes); experiment: Myotube α7 integrin FDG assay (Burkin assay in myotubes, 96-well); details: for Burkin Assay in Myotubes, value relative to DMSO: SU9516 analogs, 96-well, N=3-6
[4] = system: β-galactosidase in CMV-LacZ C2C12 myotubes; experiment: CMV-LacZ secondary screen in C2C12 myotubes (β-Gal stabilizing assay); details: for CMV-LACZ in Myotubes, signal relative to DMSO: C2C12 CMV-LacZ myotubes, fold relative to DMSO; for CMV-LACZ in Myotubes, value relative to DMSO: SU9516 analogs, C2C12 CMV-LacZ, N=2
Procedure, shortened: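 β-Gal level was the read-out, measured in a clonal C2C12 line expressing LacZ from a CMV promoter. Dose-response curves used six concentrations, 0.5 μM up to 40 μM, with duplicate points.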

Nc1ncnc(NCc2ccccc2)c1[N+](=O)[O-] [MLS000698826-01]
CMV-LACZ in Myoblasts (β-galactosidase activity relative to DMSO) ([1]; 0.5 uM): 0.9942
CMV-LACZ in Myoblasts (β-galactosidase activity relative to DMSO) ([1]; 1 uM): 0.9717
CMV-LACZ in Myoblasts (β-galactosidase activity relative to DMSO) ([1]; 5 uM): 0.8824
CMV-LACZ in Myoblasts (β-galactosidase activity relative to DMSO) ([1]; 10 uM): 0.9013
CMV-LACZ in Myoblasts (β-galactosidase activity relative to DMSO) ([1]; 20 uM): 1.2944
CMV-LACZ in Myoblasts (β-galactosidase activity relative to DMSO) ([1]; 40 uM): 1.2519
Burkin Assay in Myoblasts, signal relative to DMSO ([2]; 0.5 uM): 1.019
Burkin Assay in Myoblasts, signal relative to DMSO ([2]; 1 uM): 1.008
Burkin Assay in Myoblasts, signal relative to DMSO ([2]; 5 uM): 1.246
Burkin Assay in Myoblasts, signal relative to DMSO ([2]; 10 uM): 0.9598
Burkin Assay in Myoblasts, signal relative to DMSO ([2]; 20 uM): 0.9937
Burkin Assay in Myoblasts, signal relative to DMSO ([2]; 40 uM): 1.023
Burkin Assay in Myotubes, α7 integrin LacZ reporter signal relative to DMSO ([3]; 0.5 uM): 1.008
Burkin Assay in Myotubes, α7 integrin LacZ reporter signal relative to DMSO ([3]; 1 uM): 0.8718
Burkin Assay in Myotubes, α7 integrin LacZ reporter signal relative to DMSO ([3]; 5 uM): 1.08
Burkin Assay in Myotubes, α7 integrin LacZ reporter signal relative to DMSO ([3]; 10 uM): 0.9001
Burkin Assay in Myotubes, α7 integrin LacZ reporter signal relative to DMSO ([3]; 20 uM): 0.9575
Burkin Assay in Myotubes, α7 integrin LacZ reporter signal relative to DMSO ([3]; 40 uM): 0.7844
CMV-LACZ in Myotubes, signal relative to DMSO ([4]; 0.5 uM): 1.2010
CMV-LACZ in Myotubes, signal relative to DMSO ([4]; 1 uM): 1.0200
CMV-LACZ in Myotubes, signal relative to DMSO ([4]; 5 uM): 1.1232
CMV-LACZ in Myotubes, signal relative to DMSO ([4]; 10 uM): 0.9634
CMV-LACZ in Myotubes, signal relative to DMSO ([4]; 20 uM): 1.0505
CMV-LACZ in Myotubes, signal relative to DMSO ([4]; 40 uM): 1.0789

NC(=O)c1sc2nc3c(cc2c1N)CCC3 [MLS000707378-01]
CMV-LACZ in Myoblasts (β-galactosidase activity relative to DMSO) ([1]; 0.5 uM): 1.0175
CMV-LACZ in Myoblasts (β-galactosidase activity relative to DMSO) ([1]; 1 uM): 1.0883
CMV-LACZ in Myoblasts (β-galactosidase activity relative to DMSO) ([1]; 5 uM): 0.8309
CMV-LACZ in Myoblasts (β-galactosidase activity relative to DMSO) ([1]; 10 uM): 0.8072
CMV-LACZ in Myoblasts (β-galactosidase activity relative to DMSO) ([1]; 20 uM): 0.8667
CMV-LACZ in Myoblasts (β-galactosidase activity relative to DMSO) ([1]; 40 uM): 0.6548
Burkin Assay in Myoblasts, signal relative to DMSO ([2]; 0.5 uM): 1.003
Burkin Assay in Myoblasts, signal relative to DMSO ([2]; 1 uM): 1.046
Burkin Assay in Myoblasts, signal relative to DMSO ([2]; 5 uM): 1.024
Burkin Assay in Myoblasts, signal relative to DMSO ([2]; 10 uM): 1.076
Burkin Assay in Myoblasts, signal relative to DMSO ([2]; 20 uM): 1.317
Burkin Assay in Myoblasts, signal relative to DMSO ([2]; 40 uM): 1.493
Burkin Assay in Myotubes, α7 integrin LacZ reporter signal relative to DMSO ([3]; 0.5 uM): 0.8716
Burkin Assay in Myotubes, α7 integrin LacZ reporter signal relative to DMSO ([3]; 1 uM): 0.8512
Burkin Assay in Myotubes, α7 integrin LacZ reporter signal relative to DMSO ([3]; 5 uM): 0.8899
Burkin Assay in Myotubes, α7 integrin LacZ reporter signal relative to DMSO ([3]; 10 uM): 1.241
Burkin Assay in Myotubes, α7 integrin LacZ reporter signal relative to DMSO ([3]; 20 uM): 1.046
Burkin Assay in Myotubes, α7 integrin LacZ reporter signal relative to DMSO ([3]; 40 uM): 1.051
CMV-LACZ in Myotubes, signal relative to DMSO ([4]; 0.5 uM): 1.0537
CMV-LACZ in Myotubes, signal relative to DMSO ([4]; 1 uM): 1.3937
CMV-LACZ in Myotubes, signal relative to DMSO ([4]; 5 uM): 0.9294
CMV-LACZ in Myotubes, signal relative to DMSO ([4]; 10 uM): 1.0300
CMV-LACZ in Myotubes, signal relative to DMSO ([4]; 20 uM): 0.9689
CMV-LACZ in Myotubes, signal relative to DMSO ([4]; 40 uM): 0.9167

CCOc1cc2c3c(c1)C(C)=CC(C)(C)N3C(=O)C2=O [MLS000710233-01]
CMV-LACZ in Myoblasts, value relative to DMSO ([1]; 0.5 uM): 1.0173
CMV-LACZ in Myoblasts, value relative to DMSO ([1]; 1 uM): 0.8263
CMV-LACZ in Myoblasts, value relative to DMSO ([1]; 5 uM): 0.8263
CMV-LACZ in Myoblasts, value relative to DMSO ([1]; 10 uM): 0.8509
CMV-LACZ in Myoblasts, value relative to DMSO ([1]; 20 uM): 0.8530
CMV-LACZ in Myoblasts, value relative to DMSO ([1]; 40 uM): 0.8779
Burkin Assay in Myoblasts, value relative to DMSO ([2]; 0.5 uM): 1.17
Burkin Assay in Myoblasts, value relative to DMSO ([2]; 1 uM): 1.159
Burkin Assay in Myoblasts, value relative to DMSO ([2]; 5 uM): 0.8066
Burkin Assay in Myoblasts, value relative to DMSO ([2]; 10 uM): 0.5637
Burkin Assay in Myoblasts, value relative to DMSO ([2]; 20 uM): 0.1723
Burkin Assay in Myoblasts, value relative to DMSO ([2]; 40 uM): 0.1743
Burkin Assay in Myotubes, value relative to DMSO ([3]; 0.5 uM): 1.11
Burkin Assay in Myotubes, value relative to DMSO ([3]; 1 uM): 1.033
Burkin Assay in Myotubes, value relative to DMSO ([3]; 5 uM): 0.9331
Burkin Assay in Myotubes, value relative to DMSO ([3]; 10 uM): 0.8688
Burkin Assay in Myotubes, value relative to DMSO ([3]; 20 uM): 0.6933
Burkin Assay in Myotubes, value relative to DMSO ([3]; 40 uM): 0.6295
CMV-LACZ in Myotubes, value relative to DMSO ([4]; 0.5 uM): 0.8781
CMV-LACZ in Myotubes, value relative to DMSO ([4]; 1 uM): 0.9410
CMV-LACZ in Myotubes, value relative to DMSO ([4]; 5 uM): 0.9060
CMV-LACZ in Myotubes, value relative to DMSO ([4]; 10 uM): 1.0698
CMV-LACZ in Myotubes, value relative to DMSO ([4]; 20 uM): 1.1130
CMV-LACZ in Myotubes, value relative to DMSO ([4]; 40 uM): 1.1380
